For experiment [1], the system named is LBRM-33 Cells. Description: Production of IL-2 by LBRM-33 T lymphoma cells. The format is cell-based. On the procedure:
(§1) Typically, peripheral blood lymphocytes (PBL) from normal donors are incubated (2×10^6 cells/ml) in RPMI-1640 medium supplemented with 4 mM glutamine, 0.1 mM nonessential amino acids, 1 mM sodium pyruvate, 10 mM HEPES and 10% FCS and containing either Con A (5 μg/ml) or PHA (10 μg/ml) as the mitogen. AVC was added at the initiation of the culture at the dose of 12 μg/ml. The cultures were then incubated in a 5% CO2 atmosphere. Culture supernatants were collected on day 2, 3 and 4 and tested for the content (Units/ml) of IL-2 using a biological assay consisting in measuring the proliferative response of murine CTLL-2 T cells whose growth in culture is strictly dependent on the presence of IL-2 in the medium. The proliferative response (^3H-Thymidine incorporation) of CTLL-2 cells was plotted on a reference curve constructed with a standard amount of IL-2 and the experimental values calculated accordingly.
(§2) The effect on IL-2 production by AVC was not due to a direct proliferative effect on PBL in culture (Table IV) nor did it have a direct effect on IL-2 production by Jurkat or LBRM-33 T lymphoma cells (Table V).

Experiment [2] relates to Jurkat cells. Description: Production of IL-2 by Jurkat T lymphoma cells. The format is cell-based, human. As for the experimental part: as §1, §2
In experiment [3] the test system is human PBL. Description: Proliferation of human PBL. The format is cell-based. The arrangement: unit not given here.
From the text: as §2

Regarding concanavalin A [Con A], the “Production of IL-2” value in experiment [1] (24 Hours) is 28,774; in experiment [1] (48 Hours) it was 28,880; in experiment [2] (24 Hours) it was 3,815; in experiment [2] (48 Hours) it was 10,061. In addition, the “Proliferation of human PBL” value in experiment [3] (Experiment 1, 24 Hours) is 3,772; in experiment [3] (Experiment 1, 48 Hours) it was 37,839; in experiment [3] (Experiment 1, 72 Hours) it was 42,357; in experiment [3] (Experiment 2, 24 Hours), 182; in experiment [3] (Experiment 2, 48 Hours), 23,767.
